Results taken from ChEMBL document CHEMBL3885861, “Open TG-GATES”.

Species: Rattus norvegicus
Assay: Open TG-GATES - Regimen: Daily Repeat
Type: toxicity, organism-based, Sprague-Dawley
Set-up: regimen Daily Repeat, gender Male, age 6 weeks
Conditions: in vivo, po, route gavage; for APTT / Bas / Eos / Fbg / Ht / Lym / MCHC / MCV / Mono / Neu / PT / Plat / RBC / Ret: tissue Blood; for KIDNEY_L / KIDNEY_R / KIDNEY_TOTAL: tissue Kidney; for AST / CRE / GLC / IP / K / LDH / RALB / TBIL / TC / TP / gamma-GTP: tissue Plasma
[1] = 30 mg/kg, 72 h, dose level Middle, time 3 day
[2] = 30 mg/kg, […], dose level Middle, time 7 day
[3] = 30 mg/kg, […], dose level Middle, time 14 day
[4] = 30 mg/kg, […], dose level Middle, time 28 day
[5] = 100 mg/kg, 72 h, dose level High, time 3 day
[6] = 100 mg/kg, […], dose level High, time 7 day
[7] = 100 mg/kg, […], dose level High, time 14 day
[8] = 100 mg/kg, […], dose level High, time 28 day

CN(C)CCCN1c2ccccc2CCc2ccccc21 [IMIPRAMINE]
TERMINAL_BW [1]: 214.6 g | APTT [1]: 16.4 s | Bas [1]: 0% | Eos [1]: 1.4% | Fbg [1]: 303.4 mg/dL | Ht [1]: 44.3% | Lym [1]: 83.8% | MCHC [1]: 33% | MCV [1]: 61.8 fL | Mono [1]: 2% | Neu [1]: 12% | PT [1]: 16.9 s | Plat [1]: 115.8 x10_4/uL | RBC [1]: 717.2 x10_4/ul | Ret [1]: 3.2% | KIDNEY_L [1]: 0.9 g | KIDNEY_R [1]: 0.9 g | KIDNEY_TOTAL [1]: 1.8 g | AST [1]: 58.8 IU/L | CRE [1]: 0.2 mg/dL | GLC [1]: 182.4 mg/dL | IP [1]: 7.6 mg/dL | K [1]: 4.3 meq/L | LDH [1]: 90.4 IU/L | RALB [1]: 2.6 g/dL | TBIL [1]: 0.058 mg/dL | TC [1]: 77 mg/dL | TP [1]: 5.9 g/dL | gamma-GTP [1]: 1 IU/L | TERMINAL_BW [2]: 244.7 g | TERMINAL_BW [3]: 294.7 g | TERMINAL_BW [4]: 362.7 g | APTT [2]: 16.2 s | Bas [2]: 0% | Eos [2]: 1% | Fbg [2]: 323.8 mg/dL | Ht [2]: 41.6% | Lym [2]: 78.6% | MCHC [2]: 33% | MCV [2]: 61.3 fL | Mono [2]: 2% | PT [2]: 16.1 s | Plat [2]: 118.6 x10_4/uL | RBC [2]: 678.2 x10_4/ul | Ret [2]: 3.9% | APTT [3]: 16.3 s | Bas [3]: 0% | Eos [3]: 1.2% | Fbg [3]: 303.2 mg/dL | Ht [3]: 42.5% | Lym [3]: 75.8% | MCHC [3]: 33.4% | MCV [3]: 59.7 fL | Mono [3]: 2.6% | PT [3]: 16.3 s | Plat [3]: 107.7 x10_4/uL | RBC [3]: 712.4 x10_4/ul | Ret [3]: 4.3% | APTT [4]: 16.2 s | Bas [4]: 0.2% | Eos [4]: 1.2% | Fbg [4]: 305.2 mg/dL | Ht [4]: 45.7% | Lym [4]: 80.4% | MCHC [4]: 33.7% | MCV [4]: 57.1 fL | Mono [4]: 2% | PT [4]: 16.3 s | Plat [4]: 101.3 x10_4/uL | RBC [4]: 801 x10_4/ul | Ret [4]: 2.4% | KIDNEY_L [2]: 1.1 g | KIDNEY_R [2]: 1.1 g | KIDNEY_TOTAL [2]: 2.1 g | KIDNEY_L [3]: 1.2 g | KIDNEY_R [3]: 1.2 g | KIDNEY_TOTAL [3]: 2.4 g | KIDNEY_L [4]: 1.3 g | KIDNEY_R [4]: 1.3 g | KIDNEY_TOTAL [4]: 2.7 g | AST [2]: 59 IU/L | CRE [2]: 0.2 mg/dL | GLC [2]: 173 mg/dL | IP [2]: 7 mg/dL | K [2]: 4.2 meq/L | LDH [2]: 88.8 IU/L | RALB [2]: 2.5 g/dL | TBIL [2]: 0.044 mg/dL | TC [2]: 85 mg/dL | TP [2]: 5.8 g/dL | gamma-GTP [2]: 0.4 IU/L | AST [3]: 53.6 IU/L | CRE [3]: 0.2 mg/dL | GLC [3]: 170.8 mg/dL | IP [3]: 6.9 mg/dL | K [3]: 4.3 meq/L | LDH [3]: 100.6 IU/L | RALB [3]: 2.6 g/dL | TBIL [3]: 0.046 mg/dL | TC [3]: 88.2 mg/dL | TP [3]: 5.9 g/dL | gamma-GTP [3]: 0.6 IU/L | AST [4]: 53.8 IU/L | CRE [4]: 0.2 mg/dL | GLC [4]: 164.6 mg/dL | IP [4]: 7 mg/dL | K [4]: 4 meq/L | LDH [4]: 45.4 IU/L | RALB [4]: 2.7 g/dL | TBIL [4]: 0.056 mg/dL | TC [4]: 73.8 mg/dL | TP [4]: 6.3 g/dL | gamma-GTP [4]: 1 IU/L | TERMINAL_BW [5]: 197.8 g | APTT [5]: 15.5 s | Bas [5]: 0% | Eos [5]: 1% | Fbg [5]: 334.4 mg/dL | Ht [5]: 45.9% | Lym [5]: 74.8% | MCHC [5]: 33% | MCV [5]: 62.6 fL | Mono [5]: 2.4% | PT [5]: 16.5 s | Plat [5]: 126.7 x10_4/uL | RBC [5]: 733.8 x10_4/ul | Ret [5]: 2.8% | KIDNEY_L [5]: 0.9 g | KIDNEY_R [5]: 0.9 g | KIDNEY_TOTAL [5]: 1.8 g | AST [5]: 57.2 IU/L | CRE [5]: 0.2 mg/dL | GLC [5]: 163.8 mg/dL | IP [5]: 7.8 mg/dL | K [5]: 4.3 meq/L | LDH [5]: 57.8 IU/L | RALB [5]: 2.5 g/dL | TBIL [5]: 0.05 mg/dL | TC [5]: 93.8 mg/dL | TP [5]: 5.7 g/dL | gamma-GTP [5]: 0.8 IU/L | TERMINAL_BW [6]: 201.5 g | TERMINAL_BW [7]: 221.4 g | TERMINAL_BW [8]: 293.5 g | APTT [6]: 15.9 s | Bas [6]: 0% | Eos [6]: 1% | Fbg [6]: 347.8 mg/dL | Ht [6]: 45.6% | Lym [6]: 82.8% | MCHC [6]: 33.3% | MCV [6]: 59.9 fL | Mono [6]: 1.8% | PT [6]: 16.9 s | Plat [6]: 109.5 x10_4/uL | RBC [6]: 762.2 x10_4/ul | Ret [6]: 1.4% | APTT [7]: 18 s | Bas [7]: 0.4% | Eos [7]: 1.4% | Fbg [7]: 329.4 mg/dL | Ht [7]: 46.8% | Lym [7]: 69.8% | MCHC [7]: 33.5% | MCV [7]: 60.2 fL | Mono [7]: 4.4% | PT [7]: 17.3 s | Plat [7]: 98.5 x10_4/uL | RBC [7]: 777.6 x10_4/ul | Ret [7]: 1.7% | APTT [8]: 16.4 s | Bas [8]: 0.2% | Eos [8]: 1.2% | Fbg [8]: 377.5 mg/dL | Ht [8]: 46.7% | Lym [8]: 70% | MCHC [8]: 33.8% | MCV [8]: 55.4 fL | Mono [8]: 3% | Neu [8]: 25.2% | PT [8]: 16 s | Plat [8]: 93.4 x10_4/uL | RBC [8]: 842.5 x10_4/ul | Ret [8]: 2.6% | KIDNEY_L [6]: 1 g | KIDNEY_R [6]: 0.9 g | KIDNEY_TOTAL [6]: 1.9 g | KIDNEY_L [7]: 1 g | KIDNEY_R [7]: 0.9 g | KIDNEY_TOTAL [7]: 1.9 g | KIDNEY_L [8]: 1.2 g | KIDNEY_R [8]: 1.2 g | KIDNEY_TOTAL [8]: 2.4 g | AST [6]: 51.6 IU/L | CRE [6]: 0.2 mg/dL | GLC [6]: 162.6 mg/dL | IP [6]: 7.2 mg/dL | K [6]: 4.1 meq/L | LDH [6]: 79 IU/L | RALB [6]: 2.5 g/dL | TBIL [6]: 0.048 mg/dL | TC [6]: 102.6 mg/dL | TP [6]: 5.6 g/dL | gamma-GTP [6]: 0.2 IU/L | AST [7]: 75.8 IU/L | CRE [7]: 0.2 mg/dL | GLC [7]: 155.8 mg/dL | IP [7]: 6.9 mg/dL | K [7]: 4.2 meq/L | LDH [7]: 73.6 IU/L | RALB [7]: 2.6 g/dL | TBIL [7]: 0.04 mg/dL | TC [7]: 74.6 mg/dL | TP [7]: 5.8 g/dL | gamma-GTP [7]: 1.2 IU/L | AST [8]: 56 IU/L | CRE [8]: 0.2 mg/dL | GLC [8]: 148.5 mg/dL | IP [8]: 7 mg/dL | K [8]: 4.3 meq/L | LDH [8]: 40.5 IU/L | RALB [8]: 2.7 g/dL | TBIL [8]: 0.0425 mg/dL | TC [8]: 91.8 mg/dL | TP [8]: 6.2 g/dL | gamma-GTP [8]: 0.5 IU/L
